Measurements published in patent publication US9993000B2, “Isosorbide ether derivatives with preservation activity” (BASF SE, priority 2015, dated 2018).

Experiments:
Assay in all cases: Minimum Inhibitory Concentration (MIC) according to DIN 58 940
Assay type in all cases: cell-based
Staphylococcus epidermis = test system: Staphylococcus epidermis
Source text: (§1) MIC: Determination of Minimum Inhibitory Concentration (MIC) according to DIN 58 940

Propionibacterium acnes = test system: Propionibacterium acnes
Source text: as §1

Pseudomonas aeruginosa = test system: Pseudomonas aeruginosa
Source text: as §1

Candida albicans = test system: Candida albicans
Source text: as §1

Aspergillus brasiliensis = settings: Asperigillus brasiliensis
Source text: as §1

Brevibacterium epidermis = test system: Brevibacterium epidermis
Source text: as §1

Escherichia coli = test system: Escherichia coli
Source text: as §1

Malassezia furfur = settings: Malasse zia furfur
Source text: as §1

Staphylococcus aureus = test system: Staphylococcus aureus
Source text: as §1

Row | MIC (Staphylococcus epidermis) | MIC (Propionibacterium acnes) | MIC (Pseudomonas aeruginosa) | MIC (Candida albicans) | MIC (Aspergillus brasiliensis) | MIC (Brevibacterium epidermis) | MIC (Escherichia coli) | MIC (Malassezia furfur) | MIC (Staphylococcus aureus) | Compound
1 | ≤20 ppm | ≤20 ppm | >10,000 ppm | ≤20 ppm | ≤20 ppm | ≤20 ppm | >10,000 ppm | 2,500 ppm | <50 ppm | CCCCCCCCCCCCOC1COC2C(O)COC12 (stereo not drawn) [Compound (2)]
2 | ≤20 ppm | <50 ppm | <1,000 ppm | ≤100 ppm | <1000 ppm | ≤200 ppm | <2,000 ppm | ≤2500 ppm | <500 ppm | CCCCCCCCC(O)COC1COC2C(O)COC12 (stereo not drawn) [Compound (3)]
3 | ≤20 ppm | <100 ppm | <1,000 ppm | ≤20 ppm | <200 ppm | ≤20 ppm | <2,000 ppm | ≤20 ppm | <100 ppm | CCCCCCCCCCC(O)COC1COC2C(O)COC12 (stereo not drawn) [Compound (4)]

The remaining lines, values behind:

Row | Compound | MIC (Staphylococcus epidermis) | MIC (Propionibacterium acnes) | MIC (Pseudomonas aeruginosa) | MIC (Candida albicans) | MIC (Aspergillus brasiliensis) | MIC (Brevibacterium epidermis) | MIC (Escherichia coli) | MIC (Malassezia furfur) | MIC (Staphylococcus aureus)
4 | CCCCCCCCOC1COC2C(OCCCCCCCC)COC12 (stereo not drawn) [Comperative compound (1), reference compound] | <200 ppm | >10,000 ppm | >10,000 ppm | >10,000 ppm | >10,000 ppm | >10,000 ppm | >10,000 ppm | >10,000 ppm | >10,000 ppm
5 | CCCCCCCCOC1COC2C(O)COC12 (stereo not drawn) [Compound (1)] | <100 ppm | <500 ppm | <1,000 ppm | <50 ppm | <200 ppm | <500 ppm | <1,000 ppm | <1,000 ppm | <500 ppm
